{"source": "paper PMC5676089", "about": "(Chemical Science, 2017)", "conditions_in_all_cases": "two-fold dilutions in MH broth, 16–18 hours at 37 °C; triplicates", "key": {"P. aeruginosa ZEM1.A": {"tested_on": "P. aeruginosa ZEM1.A", "assay": "MIC, clinical isolate", "type": "cell-based, Pseudomonas aeruginosa"}, "P. aeruginosa ZEM9.A": {"tested_on": "P. aeruginosa ZEM9.A", "assay": "MIC, clinical isolate", "type": "cell-based, Pseudomonas aeruginosa"}, "P. aeruginosa PEJ2.6": {"tested_on": "P. aeruginosa PEJ2.6", "assay": "MIC, clinical isolate", "type": "cell-based, Pseudomonas aeruginosa"}, "P. aeruginosa PEJ9.1": {"tested_on": "P. aeruginosa PEJ9.1", "assay": "MIC, clinical isolate", "type": "cell-based, Pseudomonas aeruginosa"}, "S. aureus Newman (MSSA)": {"tested_on": "S. aureus Newman (MSSA)", "assay": "MIC", "type": "cell-based, Staphylococcus aureus"}, "S. aureus COL (MRSA)": {"tested_on": "S. aureus COL (MRSA)", "assay": "MIC", "type": "cell-based, Staphylococcus aureus"}, "A. baumannii 19606": {"tested_on": "A. baumannii 19606", "assay": "MIC", "type": "cell-based, Acinetobacter baumannii"}, "E. coli (W3110)": {"tested_on": "E. coli (W3110)", "assay": "MIC", "type": "cell-based, Escherichia coli"}, "K. pneumoniae s.": {"tested_on": "K. pneumoniae s.", "assay": "MIC", "type": "cell-based, Klebsiella pneumoniae"}}}
{"substance": "Polymyxin B", "values": [{"measurement": "MIC ZEM1.A", "setting": "P. aeruginosa ZEM1.A", "result": 0.125, "unit": "μg mL^–1"}, {"measurement": "MIC ZEM9.A", "setting": "P. aeruginosa ZEM9.A", "result": 4, "unit": "μg mL^–1"}, {"measurement": "MIC PEJ2.6", "setting": "P. aeruginosa PEJ2.6", "result": 0.5, "unit": "μg mL^–1"}, {"measurement": "MIC PEJ9.1", "setting": "P. aeruginosa PEJ9.1", "result": 0.5, "unit": "μg mL^–1"}, {"measurement": "MIC S. aureus Newman (MSSA)", "setting": "S. aureus Newman (MSSA)", "result": ">64", "unit": "μg mL^–1"}, {"measurement": "MIC S. aureus COL (MRSA)", "setting": "S. aureus COL (MRSA)", "result": ">64", "unit": "μg mL^–1"}, {"measurement": "MIC A. baumannii 19606", "setting": "A. baumannii 19606", "result": 0.125, "unit": "μg mL^–1"}, {"measurement": "MIC E. coli (W3110)", "setting": "E. coli (W3110)", "result": 0.125, "unit": "μg mL^–1"}, {"measurement": "MIC K. pneumoniae s.", "setting": "K. pneumoniae s.", "result": 1, "unit": "μg mL^–1"}]}
